Earlier results in article PMC8198792, “Prediction of Anticancer Peptides with High Efficacy and Low Toxicity by Hybrid Model Based on 3D Structure of Peptides” (International Journal of Molecular Sciences, 2021).
Like-named read-outs stand apart in the source and are kept apart here.

How the values were obtained:
[1] = test system: many types of cells, including non-cancer cells; conditions: toxic peptides dataset TD2; class label 1 (toxic, positive set) or 0 (non-toxic AMP, negative set); ref SATPdb; cited from earlier work
erythrocytes = conditions: cited from earlier work
From the text: Supplement ijms-22-05630-s001.zip/Hemloytic Peptides(seguence).xlsx, sheet "HD1" | column: Activity || Supplement ijms-22-05630-s001.zip/Hemloytic Peptides(seguence).xlsx, sheet "HD2" | column: Activity || Supplement ijms-22-05630-s001.zip/Hemloytic Peptides(seguence).xlsx, sheet "HD3" | column: Activity

cancer cell lines = test system: cancer cell lines; set-up: method as in 6 sources, ref CancerPPD [45] and SATPdb ||| ref CancerPPD/SATPdb ||| ref CancerPPD, SATPdb, Swissprot (PDB) ||| ref CancerPPD/SATPdb/Swissprot(PDB) ||| ref CancerPPD / SATPdb ||| ...; conditions: cited from earlier work
From the text: Supplement ijms-22-05630-s001.zip/ACPs(seguence).xlsx, sheet "D1" | column: Activity || Supplement ijms-22-05630-s001.zip/ACPs(seguence).xlsx, sheet "D2" | column: Activity || Supplement ijms-22-05630-s001.zip/ACPs(seguence).xlsx, sheet "D3" | column: Activity || (+ 2 further places)

[2] = ACPs dataset D1, label 1 = ACP, 0 = non-ACP (non-anticancer AMPs from SATPdb), ref CancerPPD/SATPdb
[3] = ACPs dataset D4 (sheet "D4"), label 1 = ACP, 0 = non-ACP, ref CancerPPD / SATPdb
[4] = ACPs dataset D3 (sheet "D3"), label 1 = ACP, 0 = non-ACP, ref CancerPPD/SATPdb
[5] = ACPs dataset D5, sheet "D5", label 1 = ACP, 0 = non-ACP, ref CancerPPD [45] and SATPdb
[6] = ACPs dataset D3 (supplement sheet "D3"), 1 = ACP, 0 = non-ACP, ref CancerPPD [45] and SATPdb
[7] = hemolytic peptides dataset HD3, 1 = hemolytic (positive set), 0 = non-hemolytic (negative set), labels taken from databases, ref Hemolytik/SATPdb
[8] = natural hemolytic peptide dataset HD1, label collected from databases, ref Hemolytik [49], SATPdb [34]
[9] = Hemolytic peptides dataset HD2, label 1 = hemolytic, 0 = non-hemolytic, ref Hemolytik/SATPdb

LKLSPKTKDTLKKVLKGAIKGAIAIASMA [satpdb13200]
Activity [1]: 1

FIGAILPAIAGLVHGLINR [satpdb19442]
Activity [1]: 1

FIGLLISAGKAIHDLIRRRH [satpdb26817]
Activity [1]: 1

LGPALITRKPLKGKP [satpdb17072]
Activity [1]: 0

FLSGIVGMLGKLF [satpdb21516]
Activity [1]: 1

GLLDFVTGVGKDIFAQLIKQI [satpdb25435]
Activity [1]: 1

GLVTSLIKGAGKLLGGLFGSVTG [satpdb15873]
Activity [1]: 0

GRRRRSVQWCAVSQPEATKCFQWQRNMRKVRGPPVSCIKRDSPIQCIQA [satpdb10374]
Activity [1]: 0

FLPLVLGALSGILPKIL [satpdb22972]
Activity [1]: 1

FLPAALAGIGGILGKLF [satpdb24046]
Activity [1]: 1

SAPRGCWTKSYPPKPCK [satpdb28266]
Activity [1]: 1

LLPIVGNLLNSLL [satpdb24565]
Activity [1]: 1

NFLGTLINLAKKIM [satpdb14927]
Activity [1]: 0

GKWMSLLKHILK [satpdb20336]
Activity [1]: 1

ALYLAIRRR [satpdb16531]
Activity [1]: 0

FLPLIGKILGTIL [satpdb15913]
Activity [1]: 0

FLPFLIPALTSLISSL [satpdb15275]
Activity [1]: 0

GLLDIVKKVVGAFGSL [satpdb12368]
Activity [1]: 0

GFKRIVQRIKDFLRNLV [satpdb10735]
Activity [1]: 0

GLKDIFKAGLGSLVKNIAAHVAN [satpdb11475]
Activity [1]: 0

NFLGTLVNLAKKIL [satpdb20410]
Activity [1]: 1

GLWQKIKNAAGDLASGIVEGIKS [satpdb17290]
Activity [1]: 0

FFGWLIKGAIHAGKAIHGLIHRRRH [satpdb28313]
Activity [1]: 1

FLSAITSLLGKLL [satpdb15955]
Activity [1]: 0

FLPLLFGALSTLLPKIF [satpdb23665]
Activity [1]: 1

RRRPRPPYLPRPRPPPFFPPRLPPRIPPGFPPRFPPRFP [satpdb15417]
Activity [1]: 0

GVIIDTLKGAAKTVAAELLRKAHCKLTNSC [satpdb16783]
Activity [1]: 1

NILNTIINLAKKIL [satpdb16074]
Activity [1]: 0

GFIFHIIKGLFHAGKMIHGLV [satpdb15908]
Activity [1]: 0

VDIHVWD*GV [satpdb19274]
Activity [1]: 1

GVLDILKNAAKNILAHAAEQI [satpdb26113]
Activity [1]: 1

GLLSFLPKVIGVIGHLIHPPS [satpdb15305]
Activity [1]: 0

GVLDIFKDAAKQILAHAAEKQI [satpdb12665]
Activity [1]: 1

GWLRKAAKSVGKFYYKHKYYIKAAWKIGRHAL [satpdb17212]
Activity [1]: 0

GLVTGLLKTAGKLLGDLFGSLTG [satpdb19701]
Activity [1]: 1

GMASKAGSVLGKLAKVAIGAL [satpdb16457]
Activity [1]: 0

GLFDIIKKVASVIGGL [satpdb15856]
Activity [1]: 0

FIGALLRPALKLLAGK [satpdb27126]
Activity [1]: 1

KILRGVSKKIMRTFLRRILTGKK [satpdb23198]
Activity [1]: 1

IIGHLIKTALGMLGL [satpdb15972]
Activity [1]: 0

RFRLPFRRPPIRIHPPPFYPPFRRFL [satpdb12266]
Activity [1]: 1

GLFDIIKKIAESF [satpdb11488]
Activity [1]: 0

GALRGCWTKSYPPKPCK [satpdb24908]
Activity [1]: 1

GVLSVIKNALPGIMRF [satpdb16950]
Activity [1]: 0

FFGAIAAALPHVISAIKNAL [satpdb28842]
Activity [1]: 1

SLSRFLSFLKIVYPPAF [satpdb15130]
Activity [1]: 0

LLDVLLE [satpdb11533]
Activity [1]: 0

TKPTLLGLPLGAGPAAGPGKR [satpdb17447]
Activity [1]: 0

FVQWFSKFLGRIL [satpdb16211]
Activity [1]: 1

IIGAIAAALPHVINAIKNTF [satpdb19948]
Activity [1]: 1

IIGPVLGLVGKPLESLLE [satpdb17226]
Activity [1]: 0

LALALKHALHKALLLAKHLAHKLALA [satpdb16273]
Activity [1]: 0

TSRCIFYRRKKCS [satpdb13333, hemolytic peptide, dataset HD1]
Activity (erythrocytes): 1
Activity (dataset HD1, hemolytic 1 / non-hemolytic 0) (erythrocytes): 1
Activity (cancer cell lines; [2]): 0
Activity (cancer cell lines; [3]): 0

KLalKLALKALKAALKLA [satpdb12751]
Activity (erythrocytes): 1
Activity (cancer cell lines; [4]): 0
Activity (cancer cell lines; [3]): 0
Activity (cancer cell lines; [5]): 0

QLKVDLWGTRSGIQPEQHSSGKSDVRRWRSRY [satpdb10403]
Activity (erythrocytes): 0
Activity (cancer cell lines; [6]): 0
Activity (cancer cell lines; [3]): 0
Activity (cancer cell lines; [5]): 0

GWLDVAKKIGKAAFNVAKNFLFNKAVNFAAKGIKKAVDLWG [satpdb12864, hemolytic peptide, dataset HD1]
Activity (erythrocytes; [7]): 1
Activity (dataset HD1, hemolytic 1 / non-hemolytic 0) (erythrocytes; [8]): 1
Activity (cancer cell lines; [2]): 0
Activity (cancer cell lines; [3]): 0

LLIILRRRWRKQARARSK [satpdb13104]
Activity (erythrocytes): 1
Activity (cancer cell lines; [4]): 0
Activity (cancer cell lines; [3]): 0
Activity (cancer cell lines; [5]): 0

FVPWFSKFLGRIL [satpdb13384]
Activity (erythrocytes; [9]): 1
Activity (erythrocytes; [7]): 1
Activity (cancer cell lines; [4]): 0
Activity (cancer cell lines; [3]): 0
Activity (cancer cell lines; [5]): 0

FIGAIARLLSKIF [satpdb13222, hemolytic peptide, dataset HD1]
Activity (erythrocytes; [7]): 1
Activity (dataset HD1, hemolytic 1 / non-hemolytic 0) (erythrocytes; [8]): 1
Activity (cancer cell lines; [2]): 0
Activity (cancer cell lines; [3]): 0

LKWLLKWLL [satpdb12315]
Activity (erythrocytes; [9]): 1
Activity (erythrocytes; [7]): 1
Activity (cancer cell lines; [4]): 0
Activity (cancer cell lines; [3]): 0
Activity (cancer cell lines; [5]): 0

LALKSGGWLRLFGLKDKKH [satpdb12814, hemolytic peptide, dataset HD1]
Activity (erythrocytes; [7]): 1
Activity (dataset HD1, hemolytic 1 / non-hemolytic 0) (erythrocytes; [8]): 1
Activity (cancer cell lines; [2]): 0
Activity (cancer cell lines; [3]): 0

KWAKKWKWFAKAAWKWYKK [satpdb12565]
Activity (erythrocytes; [9]): 1
Activity (erythrocytes; [7]): 1
Activity (cancer cell lines; [4]): 0
Activity (cancer cell lines; [3]): 0
Activity (cancer cell lines; [5]): 0

KKKKKKAAAAFWAAAAF [satpdb11398]
Activity (erythrocytes): 0
Activity (cancer cell lines; [6]): 0
Activity (cancer cell lines; [3]): 0
Activity (cancer cell lines; [5]): 0

FLPILAGLAAKIVPKLFCLATKKC [satpdb11778, hemolytic peptide, dataset HD1]
Activity (erythrocytes): 1
Activity (dataset HD1, hemolytic 1 / non-hemolytic 0) (erythrocytes): 1
Activity (cancer cell lines; [2]): 0
Activity (cancer cell lines; ACPs dataset D4 (sheet "D4"), label 1 = ACP (CancerPPD ID), 0 = non-ACP (non-anticancer AMP, SATPdb ID), ref CancerPPD [45] and SATPdb): 0

GIGAvLKvLTTGLPALiSWIkRKRQQ [satpdb13084]
Activity (erythrocytes; [9]): 0
Activity (erythrocytes; [7]): 0
Activity (cancer cell lines; [4]): 0
Activity (cancer cell lines; [3]): 0
Activity (cancer cell lines; [5]): 0

KKKLLLLLLLLLKKK [satpdb10761]
Activity (erythrocytes; [9]): 1
Activity (erythrocytes; [7]): 1
Activity (cancer cell lines; [6]): 0
Activity (cancer cell lines; [3]): 0
Activity (cancer cell lines; [5]): 0

KKLFKKiLKYL [satpdb14620]
Activity (erythrocytes): 0
Activity (cancer cell lines; [4]): 0
Activity (cancer cell lines; [3]): 0
Activity (cancer cell lines; [5]): 0

VKLkVyPLKVKLyP [satpdb13685]
Activity (erythrocytes): 1
Activity (cancer cell lines; [4]): 0
Activity (cancer cell lines; [3]): 0
Activity (cancer cell lines; [5]): 0

ILPWKWPKLPWRR [satpdb13392]
Activity (erythrocytes): 0
Activity (cancer cell lines; [4]): 0
Activity (cancer cell lines; [3]): 0
Activity (cancer cell lines; [5]): 0

GIGAVLK*VLTTGLpALISWIK*RK*RQQ [satpdb13686]
Activity (erythrocytes; [9]): 1
Activity (erythrocytes; [7]): 1
Activity (cancer cell lines; [4]): 0
Activity (cancer cell lines; [3]): 0
Activity (cancer cell lines; [5]): 0
